Assay results: patent US20240199623A1 (ILDONG PHARMACEUTICAL CO., LTD., priority 2020, published 2024)
≈ marks a conversion by molar mass, not a printed value.

Assays:
[1] = target: T1, Human recombinant PDE4B 1 (Homo sapiens, UniProt Q07343); experiment: Human phosphodiesterase 4 (PDE4) inhibition, PDE4B 1; type: biochemical; conditions: read-out: % inhibition range at 10 uM PDE4B1; 10 uM test compound
T1 construct: purchased BPS Bioscience; host or cells: insect Sf9 cells
Procedure: (§1) […] Human recombinant PDE4A1A, PDE4B 1, PDE4C1 and PDE4D2 are respectively expressed in each host cell (insect Sf9 cells, BPS Bioscience). Preincubation of 10 μM test compounds or vehicle was proceeded with 20 ng/ml PDE4A1A or 4 ng/ml PDE4B 1 or 8 ng/ml PDE4C1 or 5 ng/ml PDE4D2 enzyme in Tris-HCl buffer pH 7.2 for 15 minutes at 25° C. 100 nM fluorescein (FAM) labeled cAMP for another 30 minutes incubation period was added in order to initiate the enzymatic reaction and addition of IMAP binding solution was followed for its termination. Specifically, IMAP complexes with phosphate groups on nucleotide monophosphate generated from cyclic nucleotides through PDE activity. The amount of complex formed is determined by reading spectrofluorimetrical signal at 470 nm/525 nm.

Human recombinant PDE4C1 = target: T2, Human recombinant PDE4C1 (Homo sapiens, UniProt Q08493); experiment: Human phosphodiesterase 4 (PDE4) inhibition, PDE4C1; type: biochemical; conditions: read-out: % inhibition range at 10 uM PDE4C1; 10 uM test compound
T2 construct: purchased BPS Bioscience; host or cells: insect Sf9 cells
T2 sequence (Q08493 whole entry): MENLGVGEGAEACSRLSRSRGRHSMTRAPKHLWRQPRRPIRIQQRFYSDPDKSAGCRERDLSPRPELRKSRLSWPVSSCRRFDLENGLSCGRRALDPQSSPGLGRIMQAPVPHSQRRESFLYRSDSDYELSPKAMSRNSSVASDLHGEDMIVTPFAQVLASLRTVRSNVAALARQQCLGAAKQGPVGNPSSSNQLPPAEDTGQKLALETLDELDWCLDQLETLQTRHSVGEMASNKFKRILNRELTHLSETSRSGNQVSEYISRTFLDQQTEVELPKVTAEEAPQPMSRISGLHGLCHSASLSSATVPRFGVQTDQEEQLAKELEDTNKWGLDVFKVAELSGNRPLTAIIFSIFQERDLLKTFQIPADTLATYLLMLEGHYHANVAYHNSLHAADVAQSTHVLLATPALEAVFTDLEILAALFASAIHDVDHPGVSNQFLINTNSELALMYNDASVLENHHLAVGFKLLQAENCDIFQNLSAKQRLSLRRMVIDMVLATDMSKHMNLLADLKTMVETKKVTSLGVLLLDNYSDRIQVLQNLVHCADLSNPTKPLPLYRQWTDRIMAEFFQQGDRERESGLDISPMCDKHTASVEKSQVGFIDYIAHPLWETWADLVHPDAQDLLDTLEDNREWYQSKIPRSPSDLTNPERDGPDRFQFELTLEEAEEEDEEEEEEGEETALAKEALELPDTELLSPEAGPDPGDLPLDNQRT
Procedure: as §1

[2] = target: T3, Human recombinant PDE4A1A (Homo sapiens, UniProt P27815); experiment: Human phosphodiesterase 4 (PDE4) inhibition, PDE4A1A; type: biochemical; conditions: read-out: % inhibition range at 10 uM PDE4A1A; 10 uM test compound
T3 construct: purchased BPS Bioscience; host or cells: insect Sf9 cells
T3 sequence (P27815 1-647 isoform P27815-4): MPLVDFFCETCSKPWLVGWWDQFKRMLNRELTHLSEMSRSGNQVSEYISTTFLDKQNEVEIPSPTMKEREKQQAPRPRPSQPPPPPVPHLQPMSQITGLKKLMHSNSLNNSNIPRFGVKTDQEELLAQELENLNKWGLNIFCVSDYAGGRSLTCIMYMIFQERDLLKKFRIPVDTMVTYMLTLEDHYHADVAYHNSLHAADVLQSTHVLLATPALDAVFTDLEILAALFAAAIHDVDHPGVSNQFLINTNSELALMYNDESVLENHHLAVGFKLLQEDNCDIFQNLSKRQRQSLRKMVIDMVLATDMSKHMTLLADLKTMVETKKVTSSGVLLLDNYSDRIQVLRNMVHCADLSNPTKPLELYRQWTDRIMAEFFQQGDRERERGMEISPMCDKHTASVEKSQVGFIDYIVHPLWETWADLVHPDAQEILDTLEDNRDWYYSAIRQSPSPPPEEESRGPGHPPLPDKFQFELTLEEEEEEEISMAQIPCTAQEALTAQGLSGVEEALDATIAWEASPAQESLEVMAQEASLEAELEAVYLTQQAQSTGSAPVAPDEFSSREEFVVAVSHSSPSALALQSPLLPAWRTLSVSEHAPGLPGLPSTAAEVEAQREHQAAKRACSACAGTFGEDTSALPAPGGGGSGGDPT
Procedure: as §1

human wild type-CFTR [3] = target: T4, human wild type-CFTR (Homo sapiens, UniProt P13569); experiment: Short-circuit current measurement; type: cell-based; design: expressed in transfected cells; conditions: FRT cells expressing human wild type-CFTR; Forskolin 20 μM signal used as 100% activity; read-out: Short-circuit current measurement (EC50) Concentration range
T4 sequence (P13569 whole entry): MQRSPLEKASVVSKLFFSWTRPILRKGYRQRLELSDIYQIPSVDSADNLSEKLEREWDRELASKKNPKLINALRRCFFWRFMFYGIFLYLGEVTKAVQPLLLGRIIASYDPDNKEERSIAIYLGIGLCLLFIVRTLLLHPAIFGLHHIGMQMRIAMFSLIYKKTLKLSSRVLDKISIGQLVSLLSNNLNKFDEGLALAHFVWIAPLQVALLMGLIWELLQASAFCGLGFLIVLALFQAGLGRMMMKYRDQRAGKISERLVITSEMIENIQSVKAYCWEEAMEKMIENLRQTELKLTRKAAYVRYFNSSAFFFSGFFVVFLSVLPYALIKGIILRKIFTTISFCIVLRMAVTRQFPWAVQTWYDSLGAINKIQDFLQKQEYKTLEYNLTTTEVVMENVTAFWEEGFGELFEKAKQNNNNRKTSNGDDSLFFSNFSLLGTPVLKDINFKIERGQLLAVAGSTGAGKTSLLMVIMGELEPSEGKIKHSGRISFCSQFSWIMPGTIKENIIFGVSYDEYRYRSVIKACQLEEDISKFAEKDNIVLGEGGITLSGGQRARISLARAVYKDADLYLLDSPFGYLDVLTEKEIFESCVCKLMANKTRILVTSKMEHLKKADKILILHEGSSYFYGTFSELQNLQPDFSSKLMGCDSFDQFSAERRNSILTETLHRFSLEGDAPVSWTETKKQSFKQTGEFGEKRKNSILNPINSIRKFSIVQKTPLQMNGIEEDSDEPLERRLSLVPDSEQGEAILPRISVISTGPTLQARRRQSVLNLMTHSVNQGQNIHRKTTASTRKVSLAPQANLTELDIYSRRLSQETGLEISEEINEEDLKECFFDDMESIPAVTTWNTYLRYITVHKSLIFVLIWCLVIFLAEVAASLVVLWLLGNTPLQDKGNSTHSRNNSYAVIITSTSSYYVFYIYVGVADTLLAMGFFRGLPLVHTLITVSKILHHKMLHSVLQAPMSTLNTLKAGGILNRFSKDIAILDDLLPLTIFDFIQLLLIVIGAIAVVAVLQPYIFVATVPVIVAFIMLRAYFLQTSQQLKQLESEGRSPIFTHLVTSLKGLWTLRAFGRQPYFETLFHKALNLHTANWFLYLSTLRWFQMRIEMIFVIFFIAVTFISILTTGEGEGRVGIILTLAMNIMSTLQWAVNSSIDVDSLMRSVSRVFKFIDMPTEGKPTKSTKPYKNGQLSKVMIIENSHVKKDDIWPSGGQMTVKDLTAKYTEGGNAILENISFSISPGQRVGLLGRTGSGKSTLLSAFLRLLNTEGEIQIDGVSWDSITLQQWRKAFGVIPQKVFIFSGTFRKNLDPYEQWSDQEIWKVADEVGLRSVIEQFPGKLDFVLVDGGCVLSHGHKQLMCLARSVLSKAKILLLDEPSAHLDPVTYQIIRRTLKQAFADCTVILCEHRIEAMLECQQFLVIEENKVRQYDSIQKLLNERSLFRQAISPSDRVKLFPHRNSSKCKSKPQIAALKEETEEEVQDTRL
Procedure, shortened: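 FRT monolayers stably carrying human wild-type CFTR were mounted in Ussing chambers; forskolin, compounds and the inhibitor CFTRinh-172 went to apical and basolateral sides. Read-outs were apical membrane current and short-circuit current, recorded at 4 Hz.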

[4] = Phosphate-buffered saline (PBS) solubility of compounds; type: physicochemical; conditions: aqueous buffer, thermodynamic from solid, PBS pH 7.5, 0.5 mg/mL, vortexed 90 min, filtered, LC-MS/MS, read-out: Solubility Range
Procedure: PBS solutions (pH 7.5) were prepared according to the following compositions and stored at 4° C. Test compounds were dissolved in PBS (pH 7.5) at 0.5 mg/mL and vortexed for 90 min. The PBS solution was sequentially filtered through a 0.45, 1.2, […] syringe filter. Concentration of test compounds were determined using LC-MS/MS with appropriate dilution of the samples.

human wild type-CFTR [5] = target: T4, human wild type-CFTR; experiment: Cell-based YFP assay; design: expressed in transfected cells; host or cells: CHO-K1 (Chinese hamster ovary); conditions: CHO-K1 cells expressing human wild type-CFTR and YFP-H148Q/I152L; forskolin 20 μM = 100% activity; read-out: Cell-based YFP Assay (EC50) Concentration Range
Procedure, shortened: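 I⁻-driven YFP fluorescence quenching at 37 °C: 2 s baseline, addition of 140 mM iodide solution, then 14 s of readings at 0.4 s intervals. Cells were CHO-K1 expressing human wild-type CFTR plus YFP-H148Q/I152L. EC50 derived from averaged triplicates.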

Human recombinant PDE4D2 = target: T5, Human recombinant PDE4D2 (Homo sapiens, UniProt Q08499); experiment: Human phosphodiesterase 4 (PDE4) inhibition, PDE4D2; type: biochemical; conditions: read-out: % inhibition range at 10 uM PDE4D2; 10 uM test compound
T5 construct: purchased BPS Bioscience; host or cells: insect Sf9 cells
T5 sequence (Q08499 303-809 limits assumed): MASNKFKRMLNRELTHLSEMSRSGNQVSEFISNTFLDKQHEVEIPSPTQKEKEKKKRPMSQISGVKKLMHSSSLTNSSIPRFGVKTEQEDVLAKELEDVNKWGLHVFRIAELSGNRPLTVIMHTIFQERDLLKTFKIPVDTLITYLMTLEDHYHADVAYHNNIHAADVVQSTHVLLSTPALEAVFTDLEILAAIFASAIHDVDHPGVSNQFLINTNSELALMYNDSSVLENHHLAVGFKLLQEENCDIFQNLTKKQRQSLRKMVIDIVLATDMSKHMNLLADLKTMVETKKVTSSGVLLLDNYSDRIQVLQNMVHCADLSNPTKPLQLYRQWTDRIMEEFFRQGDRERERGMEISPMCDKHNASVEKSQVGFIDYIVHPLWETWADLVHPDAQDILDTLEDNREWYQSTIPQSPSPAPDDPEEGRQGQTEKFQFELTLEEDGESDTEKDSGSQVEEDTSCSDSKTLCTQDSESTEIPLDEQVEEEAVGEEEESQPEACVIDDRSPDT
Procedure: as §1

T1 sequence (Q07343 whole entry): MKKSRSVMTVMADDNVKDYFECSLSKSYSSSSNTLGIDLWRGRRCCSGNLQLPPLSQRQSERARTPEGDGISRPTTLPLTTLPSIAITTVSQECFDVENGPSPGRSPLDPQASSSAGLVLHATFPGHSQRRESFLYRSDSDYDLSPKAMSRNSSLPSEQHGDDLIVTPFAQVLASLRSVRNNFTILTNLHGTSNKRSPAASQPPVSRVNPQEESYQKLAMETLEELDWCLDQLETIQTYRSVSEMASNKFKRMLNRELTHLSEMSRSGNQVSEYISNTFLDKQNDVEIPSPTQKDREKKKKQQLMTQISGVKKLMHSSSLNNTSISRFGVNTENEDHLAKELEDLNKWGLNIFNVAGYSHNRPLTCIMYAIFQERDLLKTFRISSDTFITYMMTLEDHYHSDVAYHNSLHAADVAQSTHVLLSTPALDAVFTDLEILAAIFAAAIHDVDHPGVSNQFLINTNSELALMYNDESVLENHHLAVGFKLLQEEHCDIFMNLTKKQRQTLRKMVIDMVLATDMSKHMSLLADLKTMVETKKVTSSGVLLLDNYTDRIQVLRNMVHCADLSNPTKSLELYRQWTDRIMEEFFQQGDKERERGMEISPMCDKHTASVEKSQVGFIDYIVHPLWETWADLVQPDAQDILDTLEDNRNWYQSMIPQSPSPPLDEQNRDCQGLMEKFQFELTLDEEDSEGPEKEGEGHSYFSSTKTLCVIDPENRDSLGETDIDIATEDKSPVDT

| SMILES | inhibition at 10 µM [1] [%] | inhibition at 10 µM (Human recombinant PDE4C1) [%] | inhibition at 10 µM [2] [%] | EC50 (human wild type-CFTR [3]) [nM] | solubility at 90 min [4] [µg/mL] | EC50 (human wild type-CFTR [5]) [nM] | inhibition at 10 µM (Human recombinant PDE4D2) [%] |
| --- | --- | --- | --- | --- | --- | --- | --- |
| COC(=O)C(=Cc1ccccc1)NC(=O)c1cc2nccc(-c3ccc(OC)c(OC)c3)n2n1 [Compound 105, methyl 2-(7-(3,4-dimethoxyphenyl)pyrazolo [1,5-a]pyrimidine-2-carboxamido) 3-phenylacrylate] | > 80 | > 80 | > 80 | 200 to 2000 | < 0.1 | < 200 | > 80 |
| COc1ccc(-c2ccnc3cc(C(=O)Nc4ccc(OCCN5CCOCC5)cc4)nn23)cc1OC [Compound 198, 7-(3,4-dimethoxyphenyl)-N-(4-(2-morpholinoethoxy)phenyl)pyrazolo[1,5-a]pyrimidine-2-carboxamide] | > 80 | > 80 | > 80 | < 200 |  | < 200 | > 80 |
| COc1ccc(-c2ccnc3cc(C(=O)N4CC[C@@H](NC(=O)c5ccccc5)C4)nn23)cc1OC [Compound 384, (R)-N-(1-(7-(3,4-dimethoxyphenyl)pyrazolo[1,5-a]pyrimidine-2-carbonyl)pyrrolidin-3-yl)benzamide] | > 80 | 50 to 80 | > 80 |  |  | < 200 | > 80 |
| COc1ccc(-c2ccnc3cc(C(=O)Nc4ccc(C(=O)N5CCOCC5)cc4)nn23)cc1OC [Compound 41, 7-(3,4-dimethoxyphenyl)-N-(4-(morpholine-4-carbonyl)phenyl)pyrazolo [1,5-a]pyrimidine-2-carboxamide] | > 80 | > 80 | > 80 |  | < 0.1 |  | > 80 |
| CCOc1ccc(C(=O)Nc2cc3nccc(-c4ccc(OC)c(OC)c4)n3n2)cc1 [Compound 287, N-(7-(3,4-dimethoxyphenyl)pyrazolo[1,5-a]pyrimidin-2-yl)-4-ethoxybenzamide] | 50 to 80 | < 50 | 50 to 80 |  |  | 200 to 2000 | 50 to 80 |
| COc1ccc(-c2ccnc3cc(C(=O)N4CCN(S(=O)(=O)c5ccccc5)[C@@H](C)C4)nn23)cc1OC [Compound 355, (S)-(7-(3,4-dimethoxy-phenyl)pyrazolo[1,5-a]pyrimidin-2-yl)(3-methyl-4-(phenylsulfonyl)piperazin-1-yl)methanone] | > 80 | > 80 | > 80 |  |  | < 200 | > 80 |
| COC(=O)c1ccc(NC(=O)c2cc3nccc(-c4ccc(OC)c(OC)c4)n3n2)c(F)c1 [Compound 136, methyl 4-(7-(3,4-dimethoxyphenyl)pyrazolo[1,5-a]pyrimidine-2-carboxamido)-3-fluorobenzoate] | > 80 | > 80 | > 80 |  | < 0.1 |  | > 80 |
| COc1ccc(-c2ccnc3cc(C(=O)Nc4ccc(C(=O)N5CCOCC5)cn4)nn23)cc1OC [Compound 135, 7-(3,4-dimethoxyphenyl)-N-(5-(morpholine-4-carbonyl)pyridin-2-yl) pyrazolo[1,5-a] pyrimidine-2-carboxamide] | > 80 | > 80 | > 80 | < 200 | < 0.1 | < 200 | > 80 |
| CCOc1ccc(NC(=O)c2cc3nccc(-c4ccc(OC)nc4)n3n2)cc1 [Compound 323, N-(4-ethoxyphenyl)-7-(6-methoxypyridin-3-yl) pyrazolo[1,5-a]pyrimidine-2-carboxamide] | 50 to 80 | < 50 | < 50 |  |  | ≥ 2000 | < 50 |
| COc1ccc(-c2ccnc3cc(C(=O)Nc4ccc(N5CCOCC5)cc4)nn23)cc1OC [Compound 194, 7-(3,4-dimethoxyphenyl)-N-(4-morpholinophenyl)pyrazolo [1,5-a]pyrimidine-2-carboxamide] | > 80 | > 80 | > 80 |  |  | < 200 | > 80 |
| COC(=O)c1ccccc1NC(=O)c1cc2nccc(-c3ccc(OC)c(OC)c3)n2n1 [Compound 7, methyl 2-(7-(3,4-dimethoxyphenyl)pyrazolo [1,5-a]pyrimidine-2-carboxamido)benzoate] | < 50 | < 50 | < 50 |  | < 0.1 |  | < 50 |
| COc1ccc(-c2ccnc3cc(C(=O)N[C@H]4CC[C@H](C(=O)OC)CC4)nn23)cc1OC [Compound 10, methyl (1r,4r)-4-(7-(3,4-dimethoxyphenyl)pyrazolo[1,5-a]pyrimidine-2-carboxamido)cyclohexane-1-carboxylate] | > 80 | > 80 | > 80 |  | 0.1 to 10 (≈ 0.228 to 22.8 µM) |  | > 80 |
| COc1ccc(-c2ccnc3cc(NC(=O)Nc4ccc(C(=O)N5CCOCC5)cc4)nn23)cc1OC [Compound 129, 1-(7-(3,4-dimethoxyphenyl)pyrazolo[1,5-a]pyrimidin-2-yl)-3-(4-(morpholine-4-carbonyl)phenyl)urea] | > 80 | > 80 | > 80 | ≥ 2000 |  | 200 to 2000 | > 80 |
| COC(=O)c1ccc(NC(=O)c2cc3ncc(-c4ccc(OC)c(OC)c4)cn3n2)cc1 [Compound 239, methyl 4-(6-(3,4-dimethoxyphenyl)pyrazolo[1,5-a]pyrimidine-2-carboxamido)benzoate] | < 50 | < 50 | < 50 |  |  | ≥ 2000 | < 50 |
| COC(=O)c1ccc(NC(=O)c2cc3nccc(-c4ccc(OC)c(OC)c4)n3n2)cc1OC [Compound 192, methyl 4-(7-(3,4-dimethoxyphenyl)pyrazolo [1,5-a]pyrimidine-2-carboxamido)-2-methoxybenzoate] | > 80 | > 80 | > 80 |  |  | < 200 | > 80 |
| COc1ccc(-c2ccnc3cc(C(=O)N4CCN(C(=O)c5ccccn5)[C@@H](C)C4)nn23)cc1OC [Compound 380, (S)-(7-(3,4-dimethoxyphenyl)pyrazolo[1,5-a]pyrimidin-2-yl) (3-methyl-4-picolinoylpiperazin-1-yl)methanone] | > 80 | 50 to 80 | > 80 |  |  | < 200 | > 80 |
| COc1ccc(-c2ccnc3cc(C(=O)N4CCN(C(=O)c5ccccc5)[C@@H](C)C4)nn23)cc1OC [Compound 210, (S)-(4-benzoyl-3-methylpiperazin-1-yl)(7-(3,4-dimethoxyphenyl)pyrazolo[1,5-a]pyrimidin-2-yl)methanone] | > 80 | > 80 | > 80 |  | 0.1 to 10 (≈ 0.206 to 20.6 µM) |  | > 80 |
| COc1ccc(-c2ccnc3cc(C(=O)N4CCN(C(=O)c5cccs5)[C@@H](C)C4)nn23)cc1OC [Compound 352, (S)-(7-(3,4-dimethoxyphenyl)pyrazolo[1,5-a]pyrimidin-2-yl)(3-methyl-4-(thiophene-2-carbonyl)piperazin-1-yl) methanone] | > 80 | > 80 | > 80 |  |  | < 200 | > 80 |
